Measurements taken from PubChem BioAssay AID489020 (Sanford-Burnham Center for Chemical Genomics, 2010).
pIC50: −log10 of the molar value. Active and inactive are the calls of the source.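 How the source made its calls: active means mean IC50, the dose halving TNF-driven NF-kB light signal, at or below a set limit; inactive means the rest.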

Tested on: HEK-293T NF-kB-Luc, TNFa-induced, luminescence, 14 h
Experiment: TNFa-driven NF-kB luciferase inhibition, HEK-293T – cell-based, HEK-293T NF-kB-Luc, luminescence, hits from both screens, counter-screen for BCR/TCR NF-kB inhibitor project, dose response (AID 489020);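 further: TNF-alpha stimulus at 0.1 ng/mL added with the seeded cells; selectivity counterscreen for hits from B- and T-cell receptor NF-kB screens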

Row | Structure (SMILES) | IC50 | pIC50
1 | Cc1cc([N+](=O)[O-])nn1Cc1ccccc1F | > 80 µM (inactive) | 
2 | O=C(Nc1ccc([N+](=O)[O-])cc1)C(=O)Nc1cccc(C(=O)O)c1 |  | 5.37
3 | Cc1cc(N2CCN(c3nc4ccccc4s3)CC2)n2ncnc2n1 |  | 5.90
4 | CC(C)(O)c1[nH]c2ccc(C#N)cc2c1C(C)(C)O | 65.8 µM (inactive) | 
5 | CC(=O)OC[C@]12CCC(C)=C[C@H]1O[C@@H]1[C@H](O)[C@@H](OC(C)=O)[C@@]2(C)[C@]12CO2 |  | > 6.80
6 | CC(=O)OC(C)(C)/C=C/C(=O)[C@](C)(O)C1[C@H](O)C[C@@]2(C)C3CC=C4C(C[C@H](O)C(=O)C4(C)C)[C@]3(C)C(=O)C[C@]12C (stereo partly specified) |  | 4.95
7 | COc1cc(NC(=O)COc2cc(O)c3c(c2)OC(C)(C)CC3=O)cc(OC)c1OC |  | 6.42
8 | COC(=O)Cc1ccc(NC(=O)c2ccc(C(C)(C)C)cc2)cc1 |  | 6.36
9 | COc1ccc(/C=C2\SC(=O)N(CCCC(=O)Nc3cc(Cl)ccc3C(=O)O)C2=O)cc1 |  | 5.95
10 | N#Cc1c(NC(=O)CSc2ncn[nH]2)sc2c1CCCCC2 |  | 6.74
11 | COc1cc(CSc2nnnn2-c2ccc(C)cc2)cc(OC)c1OC |  | 6.33
12 | Cn1nc(C(C)(C)C)cc1C(=O)NCc1ccc(N2CCCC2=O)cc1 |  | 5.70
13 | C#CC(=O)N(c1ccc(OC)c(OC)c1)C(C(=O)NC1CCCC1)c1cccs1 (stereo unspecified) |  | 5.32
14 | COc1ccc(/C=C/c2cc(-c3ccc(C)cc3)o[n+]2C)cc1 |  | 5.17
15 | CCOc1ccc(S(=O)(=O)NCc2ccncc2)cc1 |  | 6.68
16 | C[C@H](NC(=O)c1nc[nH]c1C(=O)N[C@@H](C)C(=O)OCc1ccccc1)C(=O)OCc1ccccc1 | > 80 µM (inactive) | 
17 | N=c1c2c(n(Cc3ccc(Br)cc3)c3c1CCC3)CCCC2 |  | 5.37
18 | COc1cc(SC)ccc1C(=O)Nc1nc2ccccc2[nH]1 |  | 6.70
19 | COc1cc(/C=N/NC(=S)Nc2cccc(C(=O)O)c2)ccc1O | 23.4 µM (inactive) | 
20 | C#CC(=O)N(c1ccc(OC)cc1OC)C(C(=O)NC1CCCC1)c1cccs1 (stereo unspecified) |  | 5.30
21 | CCCCCCCCNc1ncnc2ccccc12 |  | > 6.80
22 | C=C1C(=O)O[C@@H]2C[C@@H](C)[C@@H]3C=CC(=O)[C@@]3(C)[C@@H](OC(=O)CC(=O)O[C@H]3[C@@H]4C(=C)C(=O)O[C@@H]4C[C@@H](C)[C@@H]4C=CC(=O)[C@]43C)[C@H]12 |  | 5.83

Row | Structure (SMILES) | IC50 | pIC50
23 | CCCCCCCCCn1ccc(=N)cc1 |  | 6.29
24 | O=C(Nc1cccc(C(=O)O)c1)Nc1ccc2c(c1)OCO2 |  | 5.66
25 | C#CC(=O)N(c1cccc(OC)c1)C(C(=O)NC1CCCC1)c1cccs1 (stereo unspecified) |  | 5.58
26 | C=C1C(O)[C@@H]2O[C@]3(CC[C@H](/C=C/C(C)[C@@H]4CC(C)=CC5(O[C@H](C[C@@](C)(O)C(=O)O)CCC5O)O4)O3)CC[C@H]2O[C@@H]1C(O)CC(C)[C@H]1OC2(CCCCO2)CCC1C (stereo partly specified) |  | 6.51
27 | CCOC(=O)C1CCCN(S(=O)(=O)c2ccc(S(=O)(=O)N(CC)CC)cc2)C1 (stereo unspecified) |  | 6.25
28 | C[C@@H]1C[C@@H]2O[C@H]2/C=C\C=C\C(=O)Cc2c(Cl)c(O)cc(O)c2C(=O)O1 |  | 5.12
29 | NC1=NC[C@H](Cc2ccc(O)cc2)N1CCCCC1CCCCC1 |  | 4.89
30 | Cc1cc2sc3ccc(C#CC4(O)CCCCC4)cc3c(=O)c2cc1C |  | > 6.80
31 | COc1ccc(-c2c[n+]3c(n2-c2ccc(C)cc2)CCCCC3)cc1 |  | 5.79
32 | CC(=O)O[C@H]1[C@H]2O[C@]23[C@@H]2CC[C@]4(O)C[C@@H](O)CC[C@]4(C)C2CC[C@]3(C)[C@H]1c1ccc(=O)oc1 (stereo partly specified) |  | > 6.80
33 | CCCCCc1ccc(OCCCC[n+]2cccc(C)c2)c(CCCCC)c1 |  | 5.22
34 | COc1cc(NC(C)CCCN)c2ncccc2c1 (stereo unspecified) | 22.9 µM (inactive) | 
35 | Cc1ccc2nc(NC(=O)CCCC(=O)O)sc2c1 |  | 5.50
36 | CCn1c(C)nc2cc(-c3nc4n(n3)Cc3ccccc3-4)ccc21 |  | 6.62
37 | COc1ccc(CCNc2ncnc3sc(C)cc23)cc1OC |  | > 6.80
38 | CCCCCCCCCCCCn1ccc(=N)cc1 |  | 5.62
39 | CC[n+]1c(C=C2C=C(C)OC(C)=C2)sc2ccccc21 |  | 5.72
40 | Cn1nc(CC(=O)Nc2ccc3c(c2)CCC3)c2ccccc2c1=O |  | 6.66
41 | COc1ccc(OC)c(C2C3=C(COC3=O)Nc3cc4c(cc32)OCO4)c1 (stereo unspecified) | > 80 µM (inactive) | 
42 | COc1ccccc1C(=O)Nc1nc(-c2ccc(S(=O)(=O)N3CCOCC3)cc2)cs1 |  | 5.93
43 | CC(=O)c1cn(Cc2ccccc2C#N)c2ccccc12 |  | 6.06
44 | COc1ccc(-c2cc3nc(C)n(N)c(=O)c3s2)cc1 |  | 6.06

Row | Structure (SMILES) | IC50 | pIC50
45 | CCCCCCn1c2c(c(=N)c3c1CCC3)CCC2 |  | 6.02
46 | CCOc1ccc(-n2c(-c3ccc(OC)cc3)c[n+]3c2CCCCC3)cc1 |  | 5.97
47 | O=C(O)CSCC(=O)Nc1ccc(C2CCCCC2)cc1 |  | 6.33
48 | COc1ccc(C(=O)CN2C(=O)c3ccccc3S2(=O)=O)cc1 |  | 6.10
49 | Cc1ccc(Cn2ccsc2=NC(=O)CCl)cc1 |  | 4.81
50 | O=C(Nc1nc(-c2ccc(F)c(F)c2)cs1)c1ccc(OCC2CCCO2)cc1 (stereo unspecified) |  | 5.81
51 | Nc1nc(Cl)nc2c1ncn2C1CC(O)C(CO)O1 (stereo unspecified) | > 80 µM (inactive) | 
52 | O=C(CSc1nnnn1C1CC2CCC1C2)Nc1ccnc2ccccc12 (stereo unspecified) |  | > 6.80
53 | C=C1C(=O)O[C@@H]2C[C@@H](C)[C@@H]3C=CC(=O)[C@@]3(C)[C@@H](OC(C)=O)[C@H]12 | > 80 µM (inactive) | 
54 | CCCCC[n+]1cccc2c3ccccc3ccc21 |  | 5.67
55 | O=C(c1ccc(Br)cc1)c1cc([N+](=O)[O-])ccc1N1CCCCC1 | 24.5 µM (inactive) | 
56 | O=C(CCl)N1CCCC1c1ccc2c(c1)OCCO2 (stereo unspecified) |  | 5.03
57 | Nc1nc(F)nc2c1ncn2[C@@H]1O[C@H](CO)[C@@H](O)[C@H]1O |  | 5.14
58 | COCCn1c(C)cc(C2=NNC(=NC3CC3)SC2)c1C |  | 6.48
59 | COC(=O)CCn1nnc(-c2ccc(C(C)C)cc2)n1 |  | 6.57
60 | c1ccc(-c2ccc(-c3nc(-c4ccccn4)no3)cc2)cc1 |  | 5.77
61 | CCN(CC)S(=O)(=O)c1ccc(Oc2ccc(S(=O)(=O)N(CC)CC)cc2)cc1 |  | 6.34
62 | CN(C)c1ccc(-c2n(C)c3ccccc3[n+]2C)cc1 |  | 5.18
63 | Cc1cc(Cl)c(S(=O)(=O)N2CCCCCC2)cc1OCC(=O)NC1CCCCC1 |  | 6.62
64 | C[n+]1c(-c2ccccc2)c2cc(N)ccc2c2ccc(N)cc21 |  | 5.08
65 | Nc1nc(Cl)nc2c1ncn2[C@H]1C[C@H](O)[C@@H](CO)O1 |  | 4.74
66 | Cc1ccc(-c2csc(NC(=O)C3CCN(S(=O)(=O)c4cccs4)CC3)n2)cc1 |  | 5.67

Row | Structure (SMILES) | IC50 | pIC50
67 | O=C(Nc1ccc(Cl)cc1)Nc1cccc(C(=O)O)c1 |  | 4.97
68 | N=c1ccn2c(n1)O[C@H]1[C@@H](CO)[C@H](O)O[C@H]12 | > 80 µM (inactive) | 
69 | Cc1ccc(C(=O)Nc2cccc(C(F)(F)F)c2)cc1NC(=O)c1ccno1 | > 80 µM (inactive) | 
70 | CC(C)c1ccc(-c2nnn(CCC(=O)O)n2)cc1 |  | 6.42
71 | CCc1ccc(-c2nc(CS(=O)CC(=O)NCc3ccco3)c(C)o2)cc1 (stereo unspecified) | 57.9 µM (inactive) | 
72 | CCc1cc2c(Sc3nc4ccccc4s3)ncnc2s1 | 21.3 µM (inactive) | 
73 | COc1ccc(NS(=O)(=O)c2cccc(NC(=O)c3ccc(Cl)nc3)c2)cc1 |  | 6.51
74 | CCCCCCCCn1ccc(=N)cc1 |  | 4.97
75 | Cc1ccc(OCCN2CCN(c3ncnc4sc(C)c(C)c34)CC2)cc1 |  | > 6.80
76 | CCOc1ccc(NC(=O)Nc2cccc(C(=O)O)c2)cc1 |  | 5.73
77 | Cc1ccc(NC(=O)COc2ccc(N(C)C(=O)C(C)(C)C)cc2)cc1S(=O)(=O)N1CCCCC1 |  | 5.76
78 | CCCCCCn1ccc(=N)cc1 |  | 4.88
79 | COc1cc([N+](=O)[O-])cc(/C=N/NC(=O)c2ccc(NC(=O)c3ccc(C)cc3)cc2)c1O | 22.5 µM (inactive) | 
80 | O=C(/C=C/c1ccccc1)Nc1cccc(C(=O)O)c1 |  | 5.59
81 | COc1cc2c(cc1OC)[C@@H]1C(=O)c3ccc4c(c3O[C@@H]1CO2)C[C@H](C(C)C)O4 |  | > 6.80
82 | O=C(CCl)N=c1sccn1Cc1ccccc1Cl |  | 5.00
83 | O=C(CN1C(=O)c2ccccc2S1(=O)=O)c1ccc2c(c1)OCCCO2 |  | > 6.80
84 | COc1cccc2c1C(CO)N1C(C#N)C3CC(C(=O)O)C(C1C2)N3C (stereo unspecified) |  | > 6.80
85 | CCN1/C(=C\c2ccc3ccccc3[n+]2CC)Sc2cc(C)ccc21 |  | 6.20
86 | CC1CCc2c(sc(NC(=O)CSc3ncn[nH]3)c2C#N)C1 (stereo unspecified) |  | 6.21
87 | C[C@@H]1O[C@@H](O[C@@H]2C=C3CCC4C(CC[C@]5(C)[C@@H](c6ccc(=O)oc6)CC[C@]45O)[C@@]3(C)CC2)[C@H](O)[C@H](O)[C@H]1O (stereo partly specified) |  | > 6.80
88 | COc1ccccc1C(=O)Nc1nc2ccccc2[nH]1 |  | 6.10

Row | Structure (SMILES) | IC50 | pIC50
89 | CCCCCNC(=O)c1ccc2c(=O)n(CC3CCCO3)c(=O)[nH]c2c1 (stereo unspecified) | > 80 µM (inactive) | 
90 | Cc1ccnc(NC(=O)CCCOc2cc(=O)n(C)c3ccccc23)c1 |  | 5.23
91 | Cc1sc2ncnc(N3CCN(CCOc4ccc(Cl)cc4)CC3)c2c1C |  | > 6.80
92 | COC1=CC(=O)[C@]2(C=C1OC)OC[C@@H]1Oc3c(ccc4c3C=CC(C)(C)O4)C(=O)[C@@H]12 |  | 6.21
93 | CCn1c(C)cc(C(=O)COC(=O)c2ccccc2[N+](=O)[O-])c1C |  | > 6.80
94 | CC1CCN(c2nc3ccc(C(=O)O)cc3s2)CC1 |  | 5.39
95 | Cn1nccc1C(=O)NC1CCCc2c1cnn2-c1ccccc1F (stereo unspecified) |  | > 6.80
96 | CC(C)(C)c1ccc(C(=O)Nc2ccc(CC(=O)O)cc2)o1 |  | 6.77
97 | N#Cc1c(NC(=O)CSc2ncn[nH]2)sc2c1CCCC2 |  | 6.21
98 | CCOc1ccc(/C=C2\SC(=S)N(CCC(=O)O)C2=O)cc1 | 34.2 µM (inactive) | 
99 | OCCCNc1cc(-c2ccnc(Nc3cccc(Cl)c3)n2)ccn1 |  | 6.42
100 | COc1ccc(C[C@H]2NC[C@H](O)[C@H]2OC(C)=O)cc1 |  | > 6.80
101 | CCC(C)(C)c1ccc(OCCCC[n+]2ccc(C)cc2)c(C(C)(C)CC)c1 |  | 5.09
102 | Cn1nccc1C(=O)NC1CCCc2c1cnn2-c1ccc(F)cc1F (stereo unspecified) |  | > 6.80
103 | N#CC(c1cccc(Cl)c1)c1ccc2c(C(F)(F)F)cc(C(F)(F)F)nc2n1 (stereo unspecified) | > 80 µM (inactive) | 
104 | COc1cccc2c1C(=O)c1c(O)c3c(c(O)c1C2=O)C[C@@](O)(C(=O)CO)C[C@@H]3O[C@H]1C[C@H](N)[C@H](O)[C@H](C)O1 | 26.9 µM (inactive) | 
105 | O=S(=O)(NCC1CCCO1)c1ccc(-c2ccc(S(=O)(=O)NCC3CCCO3)cc2)cc1 (stereo unspecified) |  | 6.49
106 | C=CC(=O)Nc1ccc(Nc2nc(NC3CCC(N(C)C)CC3)nc3c2ncn3C(C)C)cc1 (stereo unspecified) |  | 6.39
